Values quoted from earlier work, collected in patent US7604797B2, “Compositions and methods for treating burns” (BioMechanisms Inc., priority 2003, dated 2009).
Where two headings read alike, the source gives them in different places. Where a SMILES comes first, the peptide text is derived from it. Bridges are numbered along the chain shown (N, C = ends). [ ]: non-standard residue; d: D form. The star is where a group is joined. Ileψ(thiazoline)Cys = CC[C@H](C)[C@H](N)C1=N[C@H](C(=O)*)CS1; dOrn = NCCC[C@@H](N)C(=O)O

Experiments:
[1] = tested on: malignant tumors; conditions: for Tumor response in patients: acute lymphocytic leukemia, Burkitt's lymphoma, breast carcinoma, mycosis fungoides, epidermoid head and neck cancer, osteogenic sarcoma; for Toxicity of chemotherapy: partly related to polyglutamate formation
[2] = tested on: gram-positive and gram-negative organisms, fungi; conditions: topical use on burns
[3] = tested on: burn patients

Nc1nc(N)c2nc(CNc3ccc(C(=O)NC(CCC(=O)O)C(=O)O)cc3)cnc2n1 (stereo not shown) [AMT, 4-amino-4-deoxy-pteroylglutamic acid]
Tumor response in patients [1]: good to excellent tumor response
Toxicity of chemotherapy [1]: a variety of toxicities

CC[C@H](C)[C@H](N)C1=N[C@H](C(=O)N[C@@H](CC(C)C)C(=O)N[C@H](CCC(=O)O)C(=O)N[C@H](C(=O)N[C@H]2CCCCNC(=O)[C@H](CC(N)=O)NC(=O)[C@@H](CC(=O)O)NC(=O)[C@H](Cc3cnc[nH]3)NC(=O)[C@@H](Cc3ccccc3)NC(=O)[C@H]([C@@H](C)CC)NC(=O)[C@@H](CCCN)NC2=O)[C@@H](C)CC)CS1 [Bacitracin] ({Ileψ(thiazoline)Cys}-L[dE]IK[dOrn]I[dF]H[dD]N; lactam 4-C)
Benefits: effectiveness against microorganisms [2]: Effective against gram-
Toxicity and adverse effects in use ([3]; in vivo): Safe, non-toxic

CN(Cc1cnc2nc(N)nc(N)c2n1)c1ccc(C(=O)NC(CCC(=O)O)C(=O)O)cc1 (stereo not shown) [MTX, 4-amino-4-deoxy-N^10-methyl-pteroylglutamic acid]
Tumor response in patients [1]: good to excellent tumor response
Toxicity of chemotherapy [1]: a variety of toxicities

C[C@@H]1[C@H](O)[C@@H](C)/C=C/C=C/CC/C=C/C=C/C=C/C=C/C(O[C@H]2O[C@H](C)[C@@H](O)[C@H](N)[C@@H]2O)CC2O[C@](O)(CC(O)C(O)CCC(O)CC(O)CC(O)CC(=O)O[C@H]1C)CC(O)C2C(=O)O (stereo partly shown) [Nystatin]
Benefits: effectiveness against microorganisms [2]: Effective against the most

Neomycin
Benefits: effectiveness against microorganisms [2]: Particularly effective

Polymyxin B Sulfate
Benefits: effectiveness against microorganisms [2]: Effective agains gram-
Toxicity and adverse effects in use ([3]; topical use on burns): microorganisms. Non-toxic
